In patent US20040152670A1, “Novel aminoindanes” (priority 1999, published 2004):
Like-named read-outs stand apart in the source and are kept apart here.

Columns and labels:
[1] = test system: Group I metabotropic glutamate receptors (mGluRs); assay: Phosphatidylinositol assay in neonatal rat tissue slices (inositol phosphate accumulation); assay type: cell-based, Sprague Dawley rat; conditions: for EC50: inhibition of the inositol phosphate accumulation induced by ACPD, read-out: Group I Antagonist EC50; for Group I Agonist: increase in intracellular free inositol phosphate accumulation; for Group I Agonist / Group I Antagonist: Yes/No; for Group I Antagonist: inhibits the inositol phosphate accumulation induced by ACPD
Procedure: Briefly, cross-chopped slices are prepared from neonatal Sprague Dawley rat tissue (age: p7-p14). The slices are pre-labelled with [3H] myo-inositol. Following pre-labelling, the slices are incubated with the test drugs and standard (known Group I agonists i.e. ACPD) for a period of 45 minutes. The incubation is terminated by the addition of chloroform/methanol/HCl (100:200:2). The resulting mixture is separated into two phases by the addition of chloroform and distilled water. The aqueous fraction is applied to ion exchange columns, and inositol phosphates are eluted using 800 mM Ammonium Formate/100 mM Formic Acid. The eluent is then analyzed using liquid scintillation counting. The amount of inositol phosphate accumulation is expressed as a percentage of that induced by ACPD. Group I metabotropic glutamate receptors (mGluRs) are positively coupled on inositol phosphate metabolism. Agonists at these receptors lead to an increase in intracellular free inositol phosphates, while antagonists inhibit the increase in intracellular free inositol phosphate induced by standard agonists (i.e. ACPD). Cross-chopped slices were prepared from neonatal Sprague Dawley rat tissue (age: p7-p14). The slices were pre-labelled with [^3H] myo-inositol. Following pre-labelling, the slices were incubated with the test compounds and standard (known Group I agonists i.e. ACPD) for a period of 45 minutes. The incubation was terminated by the addition of chloroform/methanol/HCl (100:200:2). The resulting mixture was separated into two phases by the addition of chloroform and distilled water. The aqueous fraction was applied to ion exchange columns, and inositol phosphates were eluted using 800 mM Ammonium Formate/100 mM Formic Acid. The eluent was then analyzed using liquid scintillation counting. The amount of inositol phosphate accumulation was expressed as a percentage of that induced by ACPD. If the drugs cause an increase in intracellular free inositol phosphate accumulation, they are considered to be Group I agonists. […]

[2] = test system: Group II/III metabotropic glutamate receptors (mGluRs); assay: Cyclic AMP assay in rat cortical slices (forskolin-induced cyclic AMP accumulation); assay type: cell-based, Sprague Dawley rat; conditions: for Group II/III Agonist: inhibits forskolin-induced cyclic AMP accumulation; for Group II/III Agonist / Group II/III Antagonist: Yes/No; for Group II/III Antagonist: inhibits the glutamate-caused decrease in forskolin-induced cyclic AMP accumulation
Procedure: The assay of cyclic AMP formation can be performed as described previously (Tovey el al., Clinica Chimica Acta, 56, 221-234, 1974). The assay can be modelled on the cyclic AMP assay kit available from Amersham, which in turn, is based on the assay created by Tovey el al. Briefly, samples are prepared from Sprague Dawley rat (225-250 g) cortical slices. Slices are incubated with the drug, and then challenged with forskolin to induce cyclic AMP release. Following termination of the reaction by boiling, the slices are homogenized and centrifuged. Samples of supernatant are then incubated for 2-3 hours with a known quantity of [^3H]cAMP and a binding protein. When the incubation is complete, the bound cyclic AMP is separated from the free cyclic AMP by centrifugation with charcoal. The resulting supernatant (containing free cyclic AMP) is then analyzed by liquid scintillation counting. The amount of unbound cyclic AMP can be calculated from a standard curve previously determined with various samples of free cyclic AMP. Group II/III metabotropic glutamate receptors (mGluRs) are negatively coupled to adenylate cyclase, and agonists of these receptors lead to a decrease in intracellular cyclic AMP accumulation. The assay has been modeled on the cyclic AMP assay kit available from Amersham. This kit, in turn, is based on the assay created by Tovey et al. (1974). Briefly, the samples were prepared from Sprague Dawley rat (225-250 g) cortical slices. Slices were incubated with the test compound (drug), and then challenged with forskolin to induce cyclic AMP release. Following termination of the reaction by boiling, the slices were homogenized and centrifuged. Samples of supernatant were then incubated for 2-3 hours with a known quantity of [^3H]cAMP and a binding protein. When the incubation was complete, the bound cyclic AMP was separated from the free cyclic AMP by centrifugation with charcoal. The resulting supernatant (containing free cyclic AMP) was then analyzed by liquid scintillation counting. The amount of unbound cyclic AMP was calculated from a standard curve previously determined with various samples of free cyclic AMP. If the drugs tested inhibit forskolin-induced cyclic AMP accumulation, they are considered to be Group II/III agonists. Conversely, if they inhibit the decrease in forskolin-induced cyclic AMP accumulation caused by glutamate, they are considered to be Group II/III antagonists.

[3] = target: T1, mGluR1α receptor (Rattus norvegicus, UniProt P23385); assay: PI hydrolysis antagonist assay in Chinese hamster ovary cell lines expressing cloned mGluR1α; assay type: cell-based; conditions: CHO cells expressing cloned mGluR1α; compound at 5 mM; 10 µM (L)-glutamic acid; FIG. 1
T1 construct: expressed in transfected cells; host or cells: Chinese hamster ovary (CHO) cells
Procedure: The Chinese hamster ovary cell lines expressing mGluR1α, mGlu R2 and mGluR4αreceptors have been described previously (Amarori and Nakanishi, Neuron 8, 757-765, 1992; Tanabe et al., Neuron 8, 169-179, 1992, and J. Neurochem. 63, 2038-2047, 1993). They are maintained at 37° C. in a humidified 5% CO2 incubator in Dubecco's Modified Eagle Medium (DMEM) containing a reduced concentration of(S)-glutamine (2 mM) and are supplemented with 1% proline, penicillin (100 U/mL), streptomycin ([…]) and 10% dialyzed fetal calf serum (all GIBCO, Paisley). Two days before assay 1.8×10^6 cells are evenly distributed into the wells of 24 well plates.
Phosphatidylinositol (PI) hydrolysis can be measured as described previously (Hayashi et al., Nature 366, 687-690,1992, and J. Neuroscience 14, 3370-3377, 1994). Briefly, the cells are labeled with [^3H]inositol (2 μCi/mL) 24 h prior to the assay. For agonist assays, the cells are incubated with test compound dissolved in phosphate-buffered saline (PBS)-LiC] for 20 min, and agonist activity is determined from the level of ^3H-labeled mono-, bis- and tris-inositol phosphates generated, as measured following ion-exchange chromatography, compared with the level generated in the absence of the test compound. […] The antagonist activity is then determined as the inhibitory effect of the (S)-Glu mediated response. […]

[4] = inhibition of the glutamate-caused decrease in forskolin-induced cyclic AMP accumulation, read-out: Group II/III Antagonist EC50
[5] = inhibition of forskolin-induced cyclic AMP accumulation, read-out: Group II/III Agonist EC50

T1 sequence (P23385 19-1199): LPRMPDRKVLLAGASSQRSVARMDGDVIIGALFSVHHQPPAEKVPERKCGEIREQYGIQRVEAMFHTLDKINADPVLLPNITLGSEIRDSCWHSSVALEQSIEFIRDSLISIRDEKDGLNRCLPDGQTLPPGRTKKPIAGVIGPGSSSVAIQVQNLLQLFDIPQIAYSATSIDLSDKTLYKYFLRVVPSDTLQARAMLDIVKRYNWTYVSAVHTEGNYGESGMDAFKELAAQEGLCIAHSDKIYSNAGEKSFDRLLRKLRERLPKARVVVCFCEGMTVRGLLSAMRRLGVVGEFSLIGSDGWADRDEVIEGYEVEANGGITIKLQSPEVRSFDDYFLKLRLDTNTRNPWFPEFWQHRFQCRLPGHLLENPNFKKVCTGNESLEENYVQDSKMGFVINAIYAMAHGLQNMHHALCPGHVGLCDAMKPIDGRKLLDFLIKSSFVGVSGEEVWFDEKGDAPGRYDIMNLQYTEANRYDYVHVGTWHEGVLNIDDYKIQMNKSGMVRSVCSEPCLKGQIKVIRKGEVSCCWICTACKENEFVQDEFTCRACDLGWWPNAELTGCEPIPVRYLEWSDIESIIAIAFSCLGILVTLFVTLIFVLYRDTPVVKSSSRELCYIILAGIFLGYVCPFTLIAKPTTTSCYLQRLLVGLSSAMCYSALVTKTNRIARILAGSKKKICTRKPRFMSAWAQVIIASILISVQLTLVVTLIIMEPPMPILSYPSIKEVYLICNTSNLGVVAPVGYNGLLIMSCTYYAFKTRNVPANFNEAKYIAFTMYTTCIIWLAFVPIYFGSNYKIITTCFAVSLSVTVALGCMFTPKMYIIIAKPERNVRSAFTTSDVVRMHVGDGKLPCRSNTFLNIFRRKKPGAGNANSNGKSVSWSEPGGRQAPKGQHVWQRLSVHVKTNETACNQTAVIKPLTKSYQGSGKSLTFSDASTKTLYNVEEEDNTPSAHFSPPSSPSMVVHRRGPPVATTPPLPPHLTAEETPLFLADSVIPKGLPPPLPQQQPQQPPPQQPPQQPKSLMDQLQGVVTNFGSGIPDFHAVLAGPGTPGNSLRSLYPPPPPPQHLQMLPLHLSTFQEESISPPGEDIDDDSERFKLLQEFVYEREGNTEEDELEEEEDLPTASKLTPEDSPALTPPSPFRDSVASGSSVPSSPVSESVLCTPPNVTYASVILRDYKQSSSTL

Row | EC50 [1] | EC50 [2, 4] | EC50 [2, 5] | Group I Agonist [1] | Group I Antagonist [1] | Group II/III Agonist [2] | Group II/III Antagonist [2] | Structure (SMILES) | antagonist activity: block of the increase in PI hydrolysis by (L)-glutamic acid at the mGluR1α receptor [3]
1 | 1100 nM | 34 nM |  |  |  |  |  | N[C@]1(C(=O)O)c2ccccc2C[C@H]1CC(=O)O (relative stereo) [Compound 9, Trans-1-amino-1-carboxyindane-2-acetic acid] | 
2 | 1.3 nM |  | 990 nM |  |  |  |  | N[C@]1(C(=O)O)C[C@@H](CC(=O)O)c2ccccc21 (relative stereo) [Compound 13, Trans-1-amino-1-carboxyindane-3-acetic acid] | 
3 |  |  | 2100 nM |  |  |  |  | N[C@@]1(C(=O)O)C[C@H](C(=O)O)c2ccccc21 (stereo in doubt) [Compound 4b, Cis-1-aminoindane-1,3-dicarboxylic acid] | 
4 | 14000 nM | 26 nM | 460 nM | No | Yes | Yes | Yes | NC(C(=O)O)C1c2ccccc2CC1CC(=O)O (centres unmarked) [Compound 18, 1-[2-amino]-2-indanediacetic acid] | 
5 |  | 610 nM |  | No | No | No | Yes | NC(C(=O)O)C1CC(C(=O)O)c2ccccc21 (centres unmarked) [Compound 23, 1-[2-amino]-3-carboxyindaneacetic acid] | 

Row | Structure (SMILES) | EC50 [1] | EC50 [2, 4] | EC50 [2, 5] | Group I Agonist [1] | Group I Antagonist [1] | Group II/III Agonist [2] | Group II/III Antagonist [2] | antagonist activity: block of the increase in PI hydrolysis by (L)-glutamic acid at the mGluR1α receptor [3]
6 | N[C@]1(C(=O)O)C[C@H](C(=O)O)c2ccccc21 [Compound 4a, Trans-1-aminoaindane-1,3-dicarboxylic acid] | 480 nM |  |  | No | Yes | No | No | effectively blocked
